Literature values, collected in paper PMC5590095 (Chemical Science, 2017).

Test system: tubulin

Celogentin C
inhibitory activity against tubulin polymerization: inhibitory activity against tubulin polymerization
